Values of other authors, collected in patent publication US20210205417A1, “PH 7 INJECTABLE SOLUTION COMPRISING AT LEAST ONE BASAL INSULIN OF WHICH THE PI IS FROM 5.8 TO 8.5 AND A CO-POLYAMINO ACID BEARING CARBOXYLATE CHARGES AND HYDROPHOBIC RADICALS AND A LIMITED AMOUNT OF M-CRESOL” (ADOCIA, priority 2018, published 2021).

Conditions: patients

insulin glargine
period over which the hypoglycemic effect is almost constant: 24 h
